According to PMC8116058, “De novo macrocyclic peptides dissect energy coupling of a heterodimeric ABC transporter by multimode allosteric inhibition” (eLife, 2021):

What was measured:
[1] = system: wild-type TmrAB; assay: Nucleotide occlusion, wild-type TmrAB; type: biochemical, Thermus thermophilus; conditions: TmrAB 2 µM; CP^F 4 µM or orthovanadate 1 mM; ATP 1 mM traced with [α32P]-ATP; 5 min 45°C; normalized to vanadate-trapped state
Procedure: Figure 5. […] (A, B) CP6^F (A) or CP13^F (B, 50 nM each) were incubated with increasing concentrations of detergent-solubilized inward-facing TmrAB (in the absence of Mg-ATP) or outward-facing TmrA^EQB, which was trapped with Mg-ATP (1 mM) for 5 min at 45°C as described ([Hofmann et al., 2019]; [Stefan et al., 2020]). Immediately after, the fluorescence anisotropy was assayed at λex/em = 485/520 nm. The difference in fluorescence polarization was normalized to free and fully bound CP^F. Data were fitted by a one-site binding model. […] TmrAB (2 µM each) were mixed with CP^Fs (4 µM), ATP (1 mM, traced with [α^32P]-ATP), and MgCl2 (5 mM) for 5 min at 4°C or 45°C. Cold ATP (10 mM) was added, and freely exchangeable nucleotides were removed by rapid gel filtration. Occluded nucleotides were analyzed by thin layer chromatography and autoradiography. Representative radiograms for independent triplicates are shown. (D) Stably occluded nucleotides, [α^32P]-ATP and [α^32P]-ADP, were quantified by autoradiography. Data were normalized to the vanadate-trapped state. In (A, B, D), mean values ± SD (n = 3) are shown. Figure 5—source data 1. Source Data for Figure 5. Figure 5—figure supplement 1. […] (A) CP^Fs (50 nM each) were incubated with increasing concentrations of detergent-solubilized IF TmrAB in the inward-facing (IF) conformation (absence of Mg-ATP) or TmrA^EQB populated in the outward-facing (OF) conformation, which was trapped in the OF conformation by Mg-ATP (1 mM) after 5 min incubation at 45°C. The difference in fluorescence polarization was normalized to unbound (0%) and 100% bound CP^F. Data were fitted by a one-site binding model. Fluorescence anisotropy was recorded at λex/em = 485/520 nm. […] TmrA^EQB (2 µM) were incubated in the absence and presence of CP^Fs (4 µM each), ATP (1 mM, traced with [α^32P]-ATP), and MgCl2 (5 mM) for 5 min at 4°C or 45°C. Cold ATP (10 mM) was added, and free nucleotides were removed by rapid gel filtration. Occluded nucleotides were analyzed by thin layer chromatography and autoradiography. Representative radiograms for independent triplicates are shown. […] Figure 5—figure supplement 1—source data 1.
We also examined the impact of CP^Fs on the IF-to-OF transition of wild-type TmrAB induced by ATP binding through nucleotide occlusion (stable trapping) as the readout. We induced the IF-to-OF switch with radiotraced [α^32P]-ATP for 5 min at 45°C in the presence and absence of CPs and removed unbound nucleotides by rapid gel filtration. Subsequently, the occluded nucleotides were identified and quantified by thin layer chromatography and autoradiography (Figure 5C, D).
Detergent-solubilized TmrAB (2 µM) were incubated with ATP (1 mM) traced with [α^32P]-ATP (Hartmann Analytic), MgCl2 (5 mM), CP^Fs (4 µM), or orthovanadate (1 mM) for 5 min at 45°C. Cold ATP (10 mM) was added, and unbound nucleotides were removed by rapid gel filtration (Bio-Spin columns P-30, Bio-Rad). ATP (10 mM) was added, and samples were spotted onto polyethyleneimine cellulose plates (Merck Millipore). Thin-layer chromatography was performed using 0.75 M KH2PO4 pH 3.4.

[2] = system: TmrAB; assay: Competition of CP^F binding by substrate peptides (fluorescence anisotropy); set-up: species or system Thermus thermophilus; conditions: C4^ATTO655 2 µM or R9LQK 200 µM, above their KD values
Source text: (§1) To elucidate the mechanistic basis for the inhibition of ATP hydrolysis and substrate transport, we investigated the effects of CPs on substrate binding. In the first approach, fluorescent CP^Fs were used as reporters in fluorescence polarization. […] In addition, we examined the impact of CP^Bs on ATP binding to TmrAB by scintillation proximity assays (SPA) (Figure 4C). […] Taken together, CPs are high-affinity allosteric inhibitors of TmrAB that leave ATP binding and substrate interaction largely unaffected, while impairing ATP hydrolysis and substrate translocation across the membrane.
(§2) Figure 4. […] (A) CP^Fs binding TmrAB is not affected by substrate peptide binding. […] For competition, C4^ATTO655 peptide (2 µM) or R9LQK peptide (200 µM) were added. (B) Binding of C4F peptide is not affected by CP^Bs. C4F peptides (50 nM) were mixed with TmrAB (4 µM), and fluorescence anisotropy was monitored as described in (A). For competition, C4^ATTO655 (10 µM) or CP^Bs (6 µM) were added. […] TmrAB (0.2 µM) were immobilized on SPA beads and incubated with ATP (3 μM, traced with ^3H-ATP) in the presence and absence of CP^Bs (1 µM each) for 30 min on ice. ATP binding was monitored by SPA. Background values were determined after releasing TmrAB complexes from the beads by adding imidazole (200 mM). The background signal in the absence of CP^Bs was set to 0 cpm. […] As this is an equilibrium experiment, this can be rationalized by the fact that CP13 stabilizes the ATP-bound OF conformer. Figure 4—source data 1. Source data for Figure 4.
(§3) To determine equilibrium binding constants, CP^Fs (50 nM) were incubated with increasing concentrations of TmrAB-containing or empty liposomes. To probe the conformational selectivity, CP^Fs (50 nM) were mixed with detergent-solubilized IF TmrAB or OF TmrA^EQB. Before, OF TmrA^EQB was nucleotide-trapped by incubation with ATP (1 mM) and MgCl2 (3 mM) in the absence of CP^Fs for 5 min at 45°C. […] For peptide competition studies, RRYC^fluoresceinKSTEL (C4F, 50 nM) were incubated with detergent-solubilized TmrAB (4 µM), CP^Bs (6 µM), or C4^ATTO655 (10 µM). […] Fluorescence anisotropy was analyzed at λex/em of 485/520 nm using a microplate reader (CLARIOstar, BMG LABTECH). Fluorescence anisotropy was calculated using:(1) r=I||−I⊥/I||+2⋅I⊥ with I||: parallel intensity and I⊥: perpendicular intensity. Binding of CP^Fs were fitted by a one-site binding model (Langmuir 1:1) using:(2) Y=Bmax∙[L]/KD+[L] with Y: binding, Bmax: maximal binding, KD: equilibrium dissociation constant, and [L]: ligand concentration. Data represent mean ± SD from three experiments.

[3] = system: TmrAB; assay: Competition of C4F peptide binding by CP^Bs (fluorescence anisotropy); set-up: species or system Thermus thermophilus
Source text: as §1, §2, §3

[4] = biological target: T1, TmrAB reconstituted in liposomes (Thermus thermophilus, UniProt Q72J04+Q72J05); assay: Filter-based transport assay, CP^Fs tested as substrates; type: biochemical; conditions: TmrAB 0.4 µM in liposomes, C4F 3 µM or CP^F 1 µM, 5 min 45°C
T1 sequence (Q72J05 1-600): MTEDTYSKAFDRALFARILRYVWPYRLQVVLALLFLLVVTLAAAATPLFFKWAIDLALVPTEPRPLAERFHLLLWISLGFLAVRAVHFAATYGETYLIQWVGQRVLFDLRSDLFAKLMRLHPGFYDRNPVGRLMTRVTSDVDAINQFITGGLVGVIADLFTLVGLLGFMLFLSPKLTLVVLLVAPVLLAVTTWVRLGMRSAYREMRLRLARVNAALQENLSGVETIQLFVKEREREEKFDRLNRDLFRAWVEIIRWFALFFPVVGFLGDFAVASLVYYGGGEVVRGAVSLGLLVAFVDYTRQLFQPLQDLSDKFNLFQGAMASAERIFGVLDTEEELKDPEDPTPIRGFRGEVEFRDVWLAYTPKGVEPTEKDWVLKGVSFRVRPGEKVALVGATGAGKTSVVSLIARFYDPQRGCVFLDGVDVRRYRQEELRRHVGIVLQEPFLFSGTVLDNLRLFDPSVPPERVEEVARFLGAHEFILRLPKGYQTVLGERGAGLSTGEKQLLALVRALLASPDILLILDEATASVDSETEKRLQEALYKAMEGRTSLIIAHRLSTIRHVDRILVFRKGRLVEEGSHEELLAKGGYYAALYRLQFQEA
T1 sequence (Q72J04 1-578): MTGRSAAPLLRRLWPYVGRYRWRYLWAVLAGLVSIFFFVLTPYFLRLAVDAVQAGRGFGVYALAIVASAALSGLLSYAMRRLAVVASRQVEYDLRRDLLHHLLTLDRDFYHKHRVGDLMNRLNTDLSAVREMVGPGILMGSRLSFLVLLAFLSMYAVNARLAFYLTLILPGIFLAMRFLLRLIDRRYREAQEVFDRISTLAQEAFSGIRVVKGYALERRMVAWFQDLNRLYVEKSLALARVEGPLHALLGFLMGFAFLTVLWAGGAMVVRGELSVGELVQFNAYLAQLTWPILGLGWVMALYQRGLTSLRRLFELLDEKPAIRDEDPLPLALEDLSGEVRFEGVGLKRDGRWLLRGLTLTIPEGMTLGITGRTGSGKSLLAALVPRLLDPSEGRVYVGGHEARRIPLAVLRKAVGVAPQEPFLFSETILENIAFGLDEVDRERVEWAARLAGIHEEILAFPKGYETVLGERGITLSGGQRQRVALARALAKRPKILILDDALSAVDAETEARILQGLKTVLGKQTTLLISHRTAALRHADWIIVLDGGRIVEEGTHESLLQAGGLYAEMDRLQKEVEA
Source text: In order to investigate the functional impact of CPs, we examined the effect of the CPs on ATP hydrolysis and substrate transport of TmrAB (Figure 3A). We reconstituted TmrAB in liposomes and first assayed the ATPase activity. […] We next set out to investigate peptide transport by TmrAB using a filter-based transport assay. To investigate whether CPs are recognized as substrates by TmrAB, we added fluorescein-labeled CP^Fs and examined ATP-dependent translocation. In contrast to the linear substrate peptide C4F, none of the CP^Fs were transported by TmrAB (Figure 3C). Next, we examined ATP-dependent transport of C4F peptides in the presence and absence of the different CPs.
Figure 3. CP^Fs are potent inhibitors of ATP turnover and substrate transport. (A) Experimental scheme of ATP hydrolysis and peptide transport by TmrAB. (B) CP^Fs inhibit ATP hydrolysis. TmrAB in liposomes (100 nM) was incubated with ATP (2 mM, traced with [γ^32P]-ATP), and MgCl2 (5 mM) in the presence and absence of CP^Fs (1 µM) for 10 min at 45°C. Autohydrolysis was determined in the absence of TmrAB, and background turnover was conducted in the presence of EDTA (10 mM). Release of [γ^32P] was quantified by thin layer chromatography. (C) CP^Fs are not transported by TmrAB. TmrAB (0.4 µM) reconstituted in liposomes was incubated with C4F peptide (3 µM) or CP^Fs (1 µM) in the presence of ATP/ADP (3 mM) and MgCl2 (5 mM) for 5 min at 45°C. Since CP^Fs were dissolved in maximal 0.5% (v/v) of DMSO, C4F plus 0.5% DMSO served as control. Proteoliposomes were washed on filter plates, and transported peptides were quantified at λex/em = 485/520 nm. (D) Inhibition of substrate translocation. TmrAB in liposomes (0.4 µM) were incubated with C4F peptide (3 µM), ATP/ADP (3 mM), and MgCl2 (5 mM) in the presence and absence of CP^Fs (1 µM) for 15 min at 45°C. Transported peptides were quantified as described in (C). In (B–C), mean values ± SD (n = 3) are shown. Figure 3—source data 1. Source data for Figure 3.
TmrAB in liposomes (0.4 µM) were incubated with ATP/ADP (3 mM), MgCl2 (5 mM), C4F peptide (3 µM), and CP^Fs (1 µM) for 15 min at 45°C. […] Proteoliposomes were solubilized by adding SDS (1% [v/v]) in transport buffer for 10 min at 20°C. Transported peptides were quantified at λex/em = 485/520 nm using a microplate reader (CLARIOstar, BMG LABTECH).

[O]=[V]([O-])([O-])[O-] [Vanadate, orthovanadate, reference compound]
Occluded nucleotides, ADP [1]: 56.67% | Occluded nucleotides, ATP [1]: 62.96%

RRYC^ATTO655KSTEL [C4^ATTO655, reference compound]
Effect of transported peptides on CP^F binding to TmrAB [2]: did not affect binding of CP^Fs to TmrAB | Bound C4F peptide, fluorescence anisotropy ([3]; C4F 50 nM + TmrAB 4 µM + competitor (CP^B 6 µM or C4^ATTO655 10 µM)): 0.045 | Competition of C4F peptide binding ([3]; CP^B 6 µM or C4^ATTO655 10 µM as competitor): interfered with C4F peptide binding

RRYC^fluoresceinKSTEL [C4F, reference compound]
Transported peptide ([4]; ADP 3 mM (background)): 0.00 µmol·g/min | Transported peptide ([4]; ATP 3 mM): 1.64 µmol·g/min | Bound C4F peptide, fluorescence anisotropy ([3]; listed as -: baseline of C4F 50 nM): 0.023 | Bound C4F peptide, fluorescence anisotropy ([3]; listed as C4F: C4F 50 nM + TmrAB 4 µM, no competitor): 0.129

RRYQKSTEL [R9LQK, reference compound]
Effect of transported peptides on CP^F binding to TmrAB [2]: did not affect binding of CP^Fs to TmrAB
